From patent USRE38090E1, “3′-substituted nucleoside derivative” (Taiho Pharmaceutical Co., Ltd., priority 1994, dated 2003)
Values after ≈ are worked out from the molar mass of the structure shown. Where a name gives a salt, the structure may show the parent alone.

Legend:
[1] = test system: Human KB cells; test: Cytotoxicity, MTT method; format: cell-based; details: 72 h, 3 days at 37° C., read-out: IC50 (concentration at which the number of cells was decreased by 50%)
Procedure: Human KB cells were spread in a proportion of 1×10^5 cells/well on a 96-well plate. After a compound according to the present invention was dissolved in purified water, the solution was diluted to various concentrations with an RPMI 1640 medium and then added to each well, thereby conducting culture. After incubating at 37° C. for 3 days in a 5% CO2-incubator, the number of cells was counted by an MTT method.
The cytotoxicity of each of the compounds tested was expressed by a concentration (IC50) of the compound at which the number of cells was decreased by 50% compared with a control.

[2] = test system: Murine Leukemia P388 cells; test: Survival effect against murine leukemia P388; format: in vivo; details: P388 implanted i.p. in female CDFI mice
Procedure: Survival effect against murine leukemia P388:
Murine Leukemia P388 cells (1×10^6 cells) were implanted intraperitoneally in three female CDFI mice (aged 8 weeks) per group. On the day subsequent to the implantation and the fifth day, test compounds at varied concentrations were administered intraperitoneally to their corresponding groups of mice. Average survival days of each group were determined to find a survival rate (T/C, %) in accordance with the following equation.

[3] = dose 1 mg/kg i.p. on day 1 and day 5
[4] = dose 3 mg/kg i.p. on day 1 and day 5

SMILES: CC#C[C@@]1(O)[C@@H](CO)O[C@@H](n2ccc(N)nc2=O)[C@@H]1O (as salt: salt) [Compound 18, 1-(3-C-(1-propynyl)-β-D-ribofuranosyl)cytosine]
- melting point: 162 to 165 °C

SMILES: CCC#C[C@@]1(O)[C@@H](CO)O[C@@H](n2ccc(N)nc2=O)[C@@H]1O (as salt: salt) [Compound 20, 1-(3-C-(1-butynyl)-β-D-ribofuranosyl) cytosine]
- melting point: 181 to 184 °C

SMILES: CC[C@@]1(O)[C@@H](CO)O[C@@H](n2ccc(=O)[nH]c2=O)[C@@H]1O [Comparative compound 1, 1-(3-C-ethyl-β-D-ribofuranosyl)uracil, reference compound]
- IC50 [1]: > 100000 ng/mL

SMILES: C#C[C@@]1(O)[C@@H](CO)O[C@@H](n2ccc(N)nc2=O)[C@@H]1O [Compound 2, 1-(3-C-ethynyl-β-D-ribofuranosyl) cytosine]
- survival rate T/C (%) [2, 3]: 211%
- survival rate T/C (%) [2, 4]: 206%

SMILES: C#C[C@@]1(O)[C@@H](CO)O[C@@H](n2cc(F)c(N)nc2=O)[C@@H]1O [Compound 4, 1-(3-C-ethynyl-β-D-ribofuranosyl)-5-fluorocytosine]
- melting point: 242 °C (dec.)

SMILES: C#C[C@@]1(O)[C@@H](CO)O[C@@H](n2ccc(=O)[nH]c2=O)[C@@H]1O [Compound 7, 1-(3-C-ethynyl-β-D-ribofuranosyl) uracil]
- survival rate T/C (%) [2, 3]: 144%
- survival rate T/C (%) [2, 4]: 150%
- IC50 [1]: 7.7 ng/mL (≈ 0.0287 µM)

SMILES: C#C[C@@]1(O)[C@@H](CO)O[C@@H](n2c(=O)cc[nH]c2=O)[C@@H]1O [Compound 8, 3-(3-C-ethynyl-β-D-ribofuranosyl) uracil]
- melting point: 255 °C (dec.)

SMILES: C#C[C@@]1(O)[C@@H](CO)O[C@@H](n2cc(C)c(=O)[nH]c2=O)[C@@H]1O [Compound 12, 1-(3-C-ethynyl-β-D-ribofuranosyl) thymine]
- melting point: 113 to 118 °C

SMILES: C#C[C@@]1(O)[C@@H](CO)O[C@@H](n2cnc3c(=O)[nH]c(N)nc32)[C@@H]1O [Compound 16, 9-(3-C-ethynyl-β-D-ribofuranosyl) guanine]
- melting point: 225 °C (dec.)

SMILES: C=C[C@@]1(O)[C@@H](CO)O[C@@H](n2ccc(N)nc2=O)[C@@H]1O [Compound 22, 1-(3-C-ethenyl-β-D-ribofuranosyl) cytosine]
- melting point: 194 to 197 °C

SMILES: CC#C[C@@]1(O)[C@@H](CO)O[C@@H](n2ccc(=O)[nH]c2=O)[C@@H]1O [Compound 24, 1-(3-C-(1-propynyl)-β-D-ribofuranosyl)uracil]
- melting point: 211 to 213 °C

SMILES: CCC#C[C@@]1(O)[C@@H](CO)O[C@@H](n2ccc(=O)[nH]c2=O)[C@@H]1O [Compound 26, 1-(3-C-(1-butynyl)-β-D-ribofuranosyl) uracil]
- melting point: 139 to 142 °C

SMILES: C=C[C@@]1(O)[C@@H](CO)O[C@@H](n2ccc(=O)[nH]c2=O)[C@@H]1O [Compound 28, 1-(3-C-ethenyl-β-D-ribofuranosyl) uracil]
- melting point: 219 to 222 °C

SMILES: C[Si](C)(C)C#C[C@@]1(O)[C@@H](CO)O[C@@H](n2ccc(=O)[nH]c2=O)[C@@H]1O [Compound 35, 1-(3-C-trimethylsilylethynyl-β-D-ribofuranosyl)uracil]
- melting point: 175 to 177 °C
- IC50 [1]: 7.8 ng/mL (≈ 0.0229 µM)
